In data set [1] the test system is MCF-7 cells (breast adenocarcinoma). The data set is described as follows: MTT cell viability assay, MCF-7. It counts as cell-based, human. As to conditions: Homo sapiens, MCF7, 48 h, MTT, read-out: cell viability, percentage of live cells; for viability at 10 µM: MCF-7, 10 µM; for viability at 50 µM: MCF-7, 50 µM. How it is done: (§1) Cell lines were purchased from the American Type Culture Collection (ATCC). MCF-7, HTB-54, BEAS-2B and 184B5 cell lines were grown in RPMI 1640 medium (Gibco) supplemented with 10% fetal bovine serum (FBS; Gibco), 100 units/mL penicillin, and […] streptomycin (Gibco). HT-29 and HCT-116 cell lines was cultured in McCoy’s 5A (Gibco), 10% FBS, 100 units/mL penicillin, and 100 μg/mL streptomycin. Cells were maintained at 37 °C and 5% CO2. Culture medium was replaced every three days.
(§2) A cell viability assay of each compound was carried out using an MTT assay. Each selenourea was dissolved in dimethyl sulfoxide (DMSO) at a concentration of 0.01 M. Serial dilutions were prepared with non-supplemented culture medium. Cytotoxic activity of each selenourea was determined at two different concentrations (10 and 50 µM) in MCF-7, HTB-54, and HT-29 cells. In addition, selected compounds were tested at seven different concentrations (0.1, 1, 5, 10, 25, 50, 100 µM) on MCF-7, HT-29, HCT-116, HTB-54, 184B5, and BEAS-2B cells. The number of passages before defrosting the cells was 3, and they were kept under culture up to a maximum of 15.
(§3) Briefly, 1 × 10^4 cells/well were grown in 96-well plates for 24 h. Then, these cells were incubated with either DMSO (negative control) at 5 µM or a different concentration of each tested selenourea for 48 h. A volume of 20 µL of MTT was added 150 min before the termination point to measure cellular viability. After this time, culture medium was removed. The resultant formazan crystals were dissolved in 50 µL of DMSO, and absorbance was measured at 570 nm. Results are expressed as IC50, the half maximal inhibitory concentration. This value was calculated using GraphPad Prism 7 software by nonlinear curve fitting. Furthermore, the selectivity index (SI) was calculated as the ratio of the IC50 values determined for the non-malignant and the tumoral cells (IC50 (184B5)/IC50 (MCF-7) or (IC50 (BEAS-2B)/IC50 (HTB-54). Data were obtained from at least three independent experiments performed in triplicates.
(§4) The cytotoxic effects of synthesized compounds were evaluated against three human cancer cell lines: breast adenocarcinoma (MCF-7), lung adenocarcinoma (HTB-54), and colon carcinoma (HT-29), using a 3-[4,5-dimethylthiazol-2-yl]-2,5-diphenyltetrazolium bromide (MTT) assay. Firstly, the compounds were screened at two doses (50 and 10 µM) and after 48 h of treatment. The results are summarized in Figure 4 and are presented as percentages of growth inhibition related to control.
(Tetrazolium dyes change colour on reduction, which living cells bring about.)

In data set [2] the test system is HT-29 cells (colon carcinoma). The data set is described as follows: MTT cell viability assay, HT-29. It counts as cell-based. The note with it: Homo sapiens, 48 h, MTT, read-out: cell viability, percentage of live cells; for viability at 10 µM: HT-29, 10 µM; for viability at 50 µM: HT-29, 50 µM. How it is done:
as §1, §2, §3, §4

Data set [3] relates to HTB-54 cells (lung adenocarcinoma). The data set is described as follows: MTT cell viability assay, HTB-54. As to conditions: Homo sapiens, 48 h, MTT, read-out: cell viability, percentage of live cells; for viability at 10 µM: HTB-54, 10 µM; for viability at 50 µM: HTB-54, 50 µM. Type of data set: cell-based, human. How it is done: as §1, §2, §3, §4
A short description of data set [4]: DPPH radical scavenging assay. The note with it: for DPPH radical scavenging kinetics: 0.03 mg/mL, time-point 0 min. The method, then: (§5) From all the methods available for the prediction of the antioxidant properties, DPPH^● and ABTS^●+ assays were chosen according to their simplicity, accessibility, and effectiveness for a fast prediction of radical scavenging activities in vitro. The radical scavenging capacity of the novel selenoureas was determined by DPPH^● and ABTS^●^+ assays. Measurements were recorded on a BioTeck PowerWave XS spectrophotometer (BioTeck Instruments, Winooski (VT), USA) and the data were collected using KCJunior software (BioTeck Instruments, Winooski (VT), USA).
A DPPH assay was performed, as described by Svinyarov. Stock solutions of 1 mg/mL were initially prepared for each selenourea in methanol and this solution was used for the preparation of the different concentrations employed in the assay. Ascorbic acid (Asc) was used as positive control due to the literature reports that this derivative is a potent antioxidant and radical scavenger. A volume of 100 µL from a previously prepared stock solution (preserved in dark and daily prepared) of DPPH (100 µM) in methanol were added to 100 µL of the methanolic selenoureas solutions prepared previously, and the antioxidant activity these compounds was assessed by its ability to decolorize DPPH● radical (purple color in methanol) to DPPHH (colorless). Thus, radical scavenging activity was estimated by the decrease in the absorbance at 517 nm. Determinations were recorded at different time-points. All the measurements were carried out in triplicate. Results are expressed as the percentage of the radicals scavenged, calculated using the following formula:(1) % DPPH radical scavenging=Acontrol − Asample/Acontrol × 100 where Acontrol refers to the absorbance of the negative control and Asample refers to the absorbance of the tested compounds. Results are expressed as percentage of DPPH radical scavenging ± SD.
In order to determine the radical scavenging of these newly synthesized selenourea derivatives, the DPPH assay was firstly employed. Measurements were performed at four different concentrations ranging from 0.0003 to 0.03 mg/mL, and collected at time-points between 0 min and 120 min (Figures S81–S100). Results are presented as the percentage of inhibition for DPPH radical scavenging activity.
(Loss of DPPH colour is used to gauge radical scavenging.)

Data set [5] can be described thus: ABTS radical scavenging assay. The note with it: 0.03 mg/mL. How it is done: as §5
As well as DPPH, ABTS radical scavenging assay is a colorimetric method. ABTS (2,2′-azino-bis(3-ethylbenzothiazoline-6-sulfonic acid) was dissolved in deionized water at 1 mg/mL and oxidized to ABTS^●+ with potassium persulfate (2.45 mM final concentration). This oxidation process is not instantaneous, and the reaction mixture was kept in the dark overnight at room temperature. After ABTS^●+ radical was generated, the ABTS^●+ solution was diluted with 50% ethanol until an absorbance of 0.70 ± 0.02 at 734 nm for measurements was achieved. Stock solution of 1 mg/mL in absolute ethanol was prepared for each selenourea, and different dilutions were prepared to reach the final concentration, when 20 µL of this solution were added to 180 µL of the diluted ABTS^●+. The absorbance at 734 nm was recorded using 50% ethanol as blank. Trolox and Asc were used as positive controls. All determinations were carried out in triplicate. Same time intervals as in the DPPH assay were also measured. The ability to scavenge ABTS^●+ was calculated using the following formula:(2) % ABTS radical scavenging=Acontrol − Asample/Acontrol × 100 where Acontrol refers to the absorbance of the negative control and Asample refers to the absorbance of the tested compounds. The results are expressed as percentage of ABTS radical scavenging ± SD.
In order to confirm the antioxidant activity of the selenoureas, we performed an additional ABTS (2,2′-azino-bis(3-ethylbenzothiazoline-6-sulfonic acid) radical scavenging assay. Following the results obtained in the DPPH assay, this experiment was performed at 0.03 and 0.003 mg/mL. Measurements were recorded after 0′, 6′ and 60′ of incubation with ABTS. For comparison purposes, Trolox and ascorbic acid were used as references. The remarkable results are summarized in Figure 3.

Here are results for 13 compounds from paper PMC8156206, “Novel N,N′-Disubstituted Selenoureas as Potential Antioxidant and Cytotoxic Agents” (Antioxidants, 2021).

The viability is a read-out of living cells in per cent, often relative to untreated cells. As usually defined, the melting point is the temperature of the solid-liquid transition. `[Se]=C(NCc1ccco1)Nc1ccccc1` [Compound 1a] registered a melting point of 109 °C. Further, in data set [1], the viability at 10 µM is 75.7% and the viability at 50 µM was found to be 32.3%. Besides, in data set [2], the viability at 10 µM was 70.4% and the viability at 50 µM was 44.6%. Moreover, in data set [3], the viability at 10 µM was 63.5% and the viability at 50 µM was 20.5%.

Consider `Cc1ccc(NC(=[Se])NCc2ccco2)cc1` [Compound 1b], for which the viability at 10 µM in data set [1] worked out at 64.8%; in data set [2], 66.2%; in data set [3] it was 52.1%. In addition, the viability at 50 µM in data set [1] was 12.4%; in data set [2], 43.1%; in data set [3] it was 21.6%.

With `COc1ccc(NC(=[Se])NCc2ccco2)cc1` [Compound 1c], the melting point is 128 °C. In data set [1], the viability at 10 µM was determined as 64% and the viability at 50 µM is 21.5%. In addition, in data set [2], the viability at 10 µM was determined as 70.5% and the viability at 50 µM turned out to be 39.1%. Moreover, in data set [3], the viability at 10 µM came out at 55.7% and the viability at 50 µM was 28.8%.

The compound `Cc1ccc(NC(=[Se])NCc2nccs2)cc1` [Compound 2b] showed a melting point of 154 °C. Further, in data set [1], the viability at 10 µM is 65.5% and the viability at 50 µM was 16.8%. In addition, in data set [2], the viability at 10 µM came out at 88.3% and the viability at 50 µM turned out to be 49.6%. Further, the “DPPH radical scavenging capacity compared with ascorbic acid” value in data set [4] (at lower concentrations) is on record as “greater radical scavenging capacity than ascorbic acid”. In data set [3], the viability at 10 µM was found to be 53.1% and the viability at 50 µM came to 18.1%.

Take `Cc1ccc(NC(=[Se])Nc2ccc3oc(=O)ccc3c2)cc1` [Compound 3b]: the melting point is 145 °C. In data set [1], the viability at 10 µM is 73.8% and the viability at 50 µM worked out at 29.2%. In addition, in data set [2], the viability at 10 µM was determined as 57.1% and the viability at 50 µM was 46.1%. In data set [4], the “DPPH radical scavenging kinetics” value is given as “reaching the maximum activity at time-point 0′”. Further, in data set [3], the viability at 10 µM was 62.9% and the viability at 50 µM is 27.3%.

On to `COc1ccc(NC(=[Se])Nc2ccc3oc(=O)ccc3c2)cc1` [Compound 3c], for which the melting point turned out to be 159 °C. Besides, in data set [1], the viability at 10 µM came to 73.9% and the viability at 50 µM turned out to be 17.4%. In data set [2], the viability at 10 µM amounted to 58.2% and the viability at 50 µM was 34.3%. For the same compound, in data set [4], the “DPPH radical scavenging kinetics” value is listed as “reaching the maximum activity at time-point 0′”. In data set [3], the viability at 10 µM worked out at 61.6% and the viability at 50 µM stood at 9.7%.

Consider `O=c1ccc2cc(NC(=[Se])Nc3ccc(Cl)cc3)ccc2o1` [Compound 3d], for which the melting point is 156 °C. Moreover, in data set [1], the viability at 10 µM came out at 69.7% and the viability at 50 µM was found to be 28.6%. In data set [2], the viability at 10 µM turned out to be 59.1% and the viability at 50 µM worked out at 35.7%. Moreover, the “DPPH radical scavenging kinetics” value in data set [4] is “reaching the maximum activity at time-point 0′”. Moreover, in data set [3], the viability at 10 µM was found to be 70.1% and the viability at 50 µM was 14%.

In turn, `CCCCNC(=[Se])Nc1ccc(Cl)cc1` [Compound 4d] had a melting point of 116 °C. In data set [1], the viability at 10 µM amounted to 50.3% and the viability at 50 µM came to 34.1%. Moreover, in data set [2], the viability at 10 µM worked out at 64.4% and the viability at 50 µM came out at 46%. Further, in data set [3], the viability at 10 µM is 58.1% and the viability at 50 µM came out at 38%.

Regarding `CCCCNC(=[Se])Nc1ccc(C#N)cc1` [Compound 4e], the melting point turned out to be 145 °C. In data set [1], the viability at 10 µM is 70.7% and the viability at 50 µM came to 39%. In data set [2], the viability at 10 µM amounted to 60.7% and the viability at 50 µM was determined as 46.3%. Also, in data set [4], the “DPPH radical scavenging kinetics” value is on record as “reaching the maximum activity at time-point 0′”. In addition, in data set [3], the viability at 10 µM is 74.6% and the viability at 50 µM was 29.7%.

Turning to `CCCCCCNC(=[Se])Nc1ccc(OC)cc1` [Compound 5c], the melting point is 97 °C. Also, in data set [1], the viability at 10 µM came to 60.1% and the viability at 50 µM turned out to be 8.1%. Also, in data set [2], the viability at 10 µM is 62.6% and the viability at 50 µM came out at 31.1%. For the same compound, in data set [3], the viability at 10 µM was 70.4% and the viability at 50 µM stood at 10.7%.

As to `CCCCCCNC(=[Se])Nc1ccc(C#N)cc1` [Compound 5e, N-hexyl-N´-(4-cyanophenyl)selenourea], the melting point came out at 125 °C. In data set [1], the viability at 10 µM was 68.5% and the viability at 50 µM came out at 14.7%. Also, in data set [2], the viability at 10 µM amounted to 59.1% and the viability at 50 µM came to 40.4%. Moreover, in data set [4], the “DPPH radical scavenging kinetics” value is given as “reaching the maximum activity at time-point 0′”. In data set [3], the viability at 10 µM turned out to be 80.2% and the viability at 50 µM is 23.3%.

With `Cc1c(C)c2c(c(C)c1O)CCC(C)(C(=O)O)O2` (stereo not drawn) [Trolox, reference compound], the “ABTS radical scavenging kinetics” value in data set [5] is given as “reached the maximal ABTS radical scavenging activity quickly”.

Consider `O=C1O[C@H]([C@@H](O)CO)C(O)=C1O` [ascorbic acid, reference compound], for which, in data set [5], the “ABTS radical scavenging kinetics” value is reported as “reached the maximal ABTS radical scavenging activity quickly”.
